Experimental findings from patent US8372839B2, “Bipartite inhibitors of bacterial RNA polymerase” (priority 2005, dated 2013) are described below.

Starred links: 1 amine or outer side, 2 acyl side, 3 side chain; linkers in the order of their positions; H or OH if unused. Positions of bridges follow the written chain, without caps; N, C: chain ends. Non-standard residues stand in square brackets, D forms with d. Residues, ends and D or L forms follow the SMILES beside them. *: point of attachment. X2 = CO[C@H]1/C=C/O[C@@]2(C)Oc3c(C)c(O)c4c(O)c(cc(OCC(=O)NCCCCCCCCCCCCN*)c4c3C2=O)NC(=O)/C(C)=C\C=C\[C@H](C)[C@H](O)[C@@H](C)[C@@H](O)[C@@H](C)[C@H](OC(C)=O)[C@@H]1C; X1 = N=C(CCCSCC(=O)[*:3])NCCCC[C@H](N[*:1])C(=O)[*:2]

The target of one assay is [Asn516]β-RNAP (Escherichia coli, UniProt P0A8T7+P0A8V2, D516N). On the procedure: Following 10 min at 37° C., the reaction was terminated by addition of 10/j 80% formamide, 10 mM EDTA, 0.04% bromophenol blue, and 0.04% xylene cyanol.
The target of another assay is T1, Escherichia coli RNAP (Escherichia coli, UniProt P0A8T7+P0A8V2).
T1 construct: made in house
The experiment in a line: biochemical. Particulars: for inhibition of transcription (in words): transcription assay, RNAP and [Asn516]β-RNAP. Type of assay: biochemical. The method, then: RNAP was prepared as described in Niu, et al. (1996) Cell 87, 1123-1134. [Asn516]β-RNAP, a strongly rifamycin-resistant RNAP derivative (see Jin, et al. (1988) J. Mol. Biol. 202, 45-58) was prepared in the same manner, except that plasmid pRL706-516N was used in place of plasmid pREII-NHα. [Plasmid pRL706-516N, which encodes C-terminally hexahistidine tagged [Asn516]β, was constructed from plasmid pRL706 (Severinov, et al. (1997) J. Biol. Chem. 272, 24137-24140) by use of site-directed mutagenesis (QuikChange Site-Directed Mutagenesis Kit; Stratagene).]
RNAP or [Asn516]β-RNAP (3 fmol; Example 3.1) and each test compound (250 fmol-100 pmol) were pre-equilibrated 30 min at 37° C. in 15 μl buffer A (50 mM Tris-HCl, pH 8.0, 100 mM KCl, 10 mM MgCl2, 1 mM dithiothreitol, 10 ug/ml bovine serum albumin, and 5% glycerol). To the reaction mixture, was added 1 μl of 1 μM DNA fragment comprising positions −60 to +46 of the bacteriophage T5 N25 promoter (1 pmol; prepared as in Revyakin, et al. (2006) Science, in press), and, following incubation 15 min at 37° C., RNA synthesis was initiated by addition of […] of 6.7 mM ATP and 30 μM α[^32P]-UTP (0.6 Bq/fmol). Following 10 min at 37° C., the reaction was terminated by addition of 10/j 80% formamide, 10 mM EDTA, 0.04% bromophenol blue, and 0.04% xylene cyanol. Reaction products were heated […] at 90° C. and were analyzed by urea-PAGE (Sambrook, et al. (2001) Molecular Cloning: A Laboratory Manual, CSHL Press, Cold Spring Harbor, N.Y.), and quantified using a storage-phosphor scanner.

The test system of assay [1] is Escherichia coli strain D21 f2/tolC. The experiment in a line: Susceptibility assay (spot on top agar). Type of assay: cell-based. Particulars: for lowest concentration of test compound solution resulting in detectable inhibition of bacterial growth: 2.5 μl aliquots spotted, 12 h at 37° C. On the procedure: Aliquots (2.5 μl) of 1.56, 3.12, 6.25, 12.5, 25, 50, 100, 200, and 400 μM solutions of a test compound were spotted on plates containing Escherichia coli strain D21 f2/tolC (Fralick, et al. (1994) J. Bacteriol. 176, 6404-6406; ˜10^8 cells) in LB top agar (Sambrook, et al. (2001) Sambrook, et al. (2001) Molecular Cloning. A Laboratory Manual, CSHL Press, Cold Spring Harbor, N.Y.; 3.5 ml) overlaid on LB agar (Sambrook, et al. (2001) Sambrook, et al. (2001) Molecular Cloning: A Laboratory Manual, CSHL Press, Cold Spring Harbor, N.Y.; 25 ml).

As to “{rifamycin SV}—{CH2C(O)NH(CH2)10NHC(O)(CH2)2(C2N3)(CH2)4C(O)}-{[Lys5]microcin J25} [rifamicrocin 2-10]”, in assay [Asn516]β-RNAP, the “potency relative to prior-art rifamycin B, [Asn516]β-RNAP” value is recorded as “approximately 2 times higher”. The “inhibition of transcription (in words)” value on Escherichia coli RNAP was “potently to inhibit transcription”.

Take `CO[C@H]1/C=C/O[C@@]2(C)Oc3c(C)c([O-])c4c(O)c(cc(O)c4c3C2=O)NC(=O)/C(C)=C\C=C\[C@H](C)[C@H](O)[C@@H](C)[C@@H](O)[C@@H](C)[C@H](OC(C)=O)[C@@H]1C.[Na+]` [rifamycin SV, reference compound]: the “lowest concentration of test compound solution resulting in detectable inhibition of bacterial growth” value in assay [1] came to 50 µM.

Consider “{Rifamycin SV}—{CH2C(O)NH(CH2)nNHC(O)CH2S(CH2)3C(NH2^+)}-{[Lys5]MccJ25} [rifamicrocin 1-6]”, for which, on Escherichia coli RNAP, the “inhibition of transcription (in words)” value is given as “potently to inhibit transcription”.

Take `CC[C@H](C)[C@H](NC(=O)CNC(=O)[C@@H](NC(=O)[C@H](Cc1ccccc1)NC(=O)[C@H](Cc1ccc(O)cc1)NC(=O)[C@@H]1CCC(=O)NCC(=O)NCC(=O)N[C@@H](C)C(=O)NCC(=O)N[C@@H](CCCCNC(=N)CCCSCC(=O)NCCCCCCCCCCCCNC(=O)COc2cc3c(O)c4c(O)c(C)c5c(c24)C(=O)[C@@](C)(O/C=C/[C@H](OC)[C@@H](C)[C@@H](OC(C)=O)[C@H](C)[C@H](O)[C@H](C)[C@@H](O)[C@@H](C)/C=C/C=C(/C)C(=O)N3)O5)C(=O)N[C@@H](C(C)C)C(=O)N2CCC[C@H]2C(=O)N1)C(C)C)C(=O)NCC(=O)N[C@H](C(=O)N1CCC[C@H]1C(=O)N[C@H](C(=O)N[C@@H](CO)C(=O)N[C@@H](Cc1ccccc1)C(=O)N[C@@H](Cc1ccc(O)cc1)C(=O)NCC(=O)O)[C@@H](C)CC)[C@@H](C)O` [rifamicrocin 1-12, {rifamycin SV}—{CH2C(O)NH(CH2)12NHC(O)CH2S(CH2)3C(NH2^+)}-{[Lys5]microcin J25}] (GGAG[X1](X2)VPEYFVGIGTPISFYG-OH; lactam N-8 (inferred); C-terminus assumed): at Escherichia coli RNAP, inhibition was half-maximal at 2 nM (IC50) and the “inhibition of transcription (in words)” value was “potently to inhibit transcription”.

As for “{Rifamycin SV}—{CH2C(O)NH(CH2)nNHC(O)CH2S(CH2)3C(NH2^+)}-{[Lys5]MccJ25} [rifamicrocin 1-10]”, in the assay with Escherichia coli RNAP, the “inhibition of transcription (in words)” value is reported as “potently to inhibit transcription”. Moreover, the “lowest concentration of test compound solution resulting in detectable inhibition of bacterial growth” value in assay [1] is 12.5 µM. In addition, in assay [1] (vs rifamycin SV), the “potency on bacterial growth relative to rifamycin SV” value was roughly 4 times higher.

As for “{Rifamycin SV}—{CH2C(O)NH(CH2)nNHC(O)CH2S(CH2)3C(NH2^+)}-{[Lys5]MccJ25} [rifamicrocin 1-8]”, the “inhibition of transcription (in words)” value against Escherichia coli RNAP is on record as “potently to inhibit transcription”.
